Assay results from PMC10961089, “Epidermal growth factor receptor inhibition potentiates chemotherapeutics‐mediated sensitization of metastatic breast cancer stem cells” (Cancer Reports, 2024).

Tests used:
[1] = system: CD24^−/CD44^+‐breast CSCs; assay: Mammosphere forming efficiency, sorted cells; format: cell-based, human; settings: doxorubicin 0.01 μM + 1e
Method: (§1) TNBC cell lines—MDA‐MB‐231, MDA‐MB‐468, or the sorted CD24^+‐breast cancer cells, and CD24^−/CD44^+‐breast CSC populations from MDA‐MB‐231 [6] were seeded at a 1 × 10^4 cells/well density in mammosphere‐specific medium—Medium‐171 (Gibco, USA), supplemented with mammary epithelial growth supplement (MEGS) and B‐27 (Life technologies, Auckland, New Zealand) as described previously.[6], [26] TNBC cells or the sorted breast cancer cells and CSCs were plated onto poly‐hydroxyethyl methacrylate (Sigma‐Aldrich, USA) coated 24‐well plates and subjected to treatment with DMSO (Vehicle), Doxorubicin (0.01 and 0.1 μM) alone or with the potential EGFR inhibitors (compounds—1c, 1e, 1g, 1h, 1j, and 1k (5 μM) based on their low IC50 values) or a commercial EGFR inhibitor, PD153035 (10 μM). The suspension cultures were incubated under 5% CO2, at 37°C in a humidified atmosphere for 7 days. At the end of the treatment period, the images of mammospheres were taken at 10× magnification using a microscope (Olympus IX71, Tokyo, Japan). The size of spheres was measured using ImageJ software (NIH, Bethesda, MD, USA).

[2] = system: CD24^+‐breast cancer cells; assay: Mammosphere forming efficiency, sorted cells; format: cell-based, human; settings: doxorubicin 0.01 μM + 1e
Method: as §1

MDA‐MB‐231 cells = assay: Apoptosis assay, Hoechst 33342 staining; format: cell-based, human; settings: MDA-MB-231, combinatorial treatment with doxorubicin, 48 h, vs other treatment groups
Method: MDA‐MB‐231 cells were seeded at a density of 3 × 10^4 cells/well and cultured on a coverslip for 24 h at 37°C followed by 12 h serum starvation in 6‐well plates. The cells were treated with Doxorubicin (0.01 and 0.1 μM) in the absence or presence of compounds—1c, 1e, 1g, 1h, 1j, and 1k and incubated for 48 h. Post‐treatment, the cells were fixed using 4% Paraformaldehyde and stained with Hoechst 33342 dye (2 mg/mL; Invitrogen, USA) for 30 min. Apoptotic cells were identified by visualizing the fragmentation and condensation of nuclei using a confocal microscope (Olympus, USA).[30]

[3] = system: CD44, p‐EGFR, p‐JNK, p‐p38 in tumor tissue; assay: Immunohistochemical analysis of tumor tissue (colocalization with GFP, Pearson's correlation coefficient); format: in vivo, C57BL/6 mice
Method: Animal studies have been carried out with the prior approval of the Institutional Animal Ethics Committee (IICT/IAEC/025/2023). C57BL/6 female mice of age 6–8 weeks (N = 35) were initially immunosuppressed with cyclophosphamide (50 mg/kg of body weight, i.p) on alternate days for 2 weeks. For generating a preclinical orthotopic xenograft tumor model, 2 × 10^6 GFP expressing sorted stable CD24^+‐breast cancer cells and CD24^−/CD44^+‐breast CSCs were orthotopically xeno‐transplanted subcutaneously at the fourth mammary fat pad of immune‐suppressed mice (n = 5/group). Subsequently, intratumoral administration of Doxorubicin at a low dose (2.5 mg/kg of body weight), high dose (10 mg/kg of body weight), and/or combinatorial treatment of the potent EGFR inhibitor, compound 1e (50 mg/kg of body weight) or the commercial EGFR inhibitor, PD153035 (50 mg/kg of body weight) with a low dose of doxorubicin was performed to the palpable tumors of breast CSCs at day‐3 post‐transplantation.
Immunohistochemical analysis was performed by immunostaining the tissue serial sections with primary antibodies against GFP, CD44, p‐EGFR, p‐JNK, and p‐p38 (CST, USA) followed by alexafluor‐488/555 conjugated secondary antibodies (R&D systems, USA) and mounting medium containing DAPI.[28], [29] Images were captured using a confocal microscope (Olympus FV10i, Tokyo, Japan). Pearson's correlation coefficient was utilized to determine the co‐localization of GFP/CD44, GFP/p‐EGFR, GFP/p‐JNK, and GFP/p‐p38 (Table. ST3).

MDA‐MB‐468 = assay: Cell migration (chemotaxis), Boyden-Chamber assay; format: cell-based, human; settings: Doxorubicin 0.01 μM + compound 5 μM (PD153035 10 μM) vs 10% FBS and Doxorubicin alone
Method: (§2) TNBC cell lines—MDA‐MB‐231, MDA‐MB‐468, and the sorted CD24^+‐breast cancer cells, and CD24^−/CD44^+‐breast CSC populations from MDA‐MB‐231 [6] were seeded at a density of 1 × 10^6 cells/well to evaluate their migratory potential by Boyden‐Chamber assay. […] At the end of the treatment period, the cells were plated at a density of 5 × 10^3 cells/well in the upper chamber of the Boyden chamber assembly and 10% FBS in the lower chamber was used as a chemoattractant. Separately, the cells in the upper chamber were treated with Doxorubicin (0.01–0.1 μM) alone or with the potential EGFR inhibitors (compounds—1c, 1e, 1g, 1h, 1j, and 1k (5 μM) based on their low IC50 values) or a commercial EGFR inhibitor, PD153035 (10 μM) and incubated for 4 h followed by fixation and staining as described previously.[28], [29]

MDA‐MB‐231 = assay: Cell migration (chemotaxis), Boyden-Chamber assay; format: cell-based, human; settings: Doxorubicin 0.01 μM + compound 5 μM (PD153035 10 μM) vs 10% FBS and Doxorubicin alone
Method: as §2

[4] = system: BAX, BCL‐2, cytochrome‐C in MDA‐MB‐231 cells; assay: Immunoblot analysis of apoptotic markers; format: cell-based, human; settings: MDA-MB-231, doxorubicin 0.01 μM + compound 5 μM
Method: MDA‐MB‐231 cells were subjected to the treatment of doxorubicin (0.01 μM) in the absence/presence of the selected potent compounds—1c, 1e, 1g, 1h, 1j, and 1k at 5 μM concentration or a standard EGFR inhibitor, PD153035 (10 μM) for 48 h. Separately, TNBC cells—MDA‐MB‐231 were also treated with doxorubicin (0.01 and/or 0.1 μM) in the absence/presence of potent EGFR inhibitor/compound, 1e at 5 μM concentration or a standard EGFR inhibitor, PD153035 (10 μM) for 48 h. Cells were then lysed to isolate the total protein and subjected to SDS‐PAGE, transferred onto a poly (vinylidene difluoride) membrane, probing with primary antibodies (Table ST2) against apoptotic markers—BAX, BCL‐2, cytochrome‐C, and β‐actin followed by incubation with horseradish peroxidase‐conjugated secondary antibodies (CST, Waltham, MA, USA) as described previously.[6] Visualization was performed using G: Box (Syngene, Cambridge, UK).

c1cncc(C(c2c[nH]c3ccccc23)c2c[nH]c3ccccc23)c1 [1e]
mammosphere forming efficiency [1]: significant decrease | mammosphere forming efficiency [2]: significant decrease | doxorubicin‐induced nuclear fragmentation (apoptosis) (MDA‐MB‐231 cells): markedly increased | colocalization of GFP/p‐EGFR ([3]; with doxorubicin low dose, CSC xenograft tumor tissue): decreased significantly | activation of apoptotic signaling mediators (GFP/p‐JNK, GFP/p‐p38 colocalization) ([3]; with low dose doxorubicin, comparable with high dose doxorubicin alone): increased activation | colocalization of GFP and CD44 (Pearson's correlation coefficient) ([3]; with low dose of doxorubicin, CSC xenograft tumor tissue): comparable to the high dose of doxorubicin treated group | migratory potential (MDA‐MB‐468): significant decrease | migratory potential (MDA‐MB‐231): significant decrease | BAX protein level ([4]; 48 h): elevation | BAX/BCL2 ratio ([4]; 48 h): elevation | BCL2 levels ([4]; 48 h): marked decrease | doxorubicin‐induced expression of Cyt‐C ([4]; vs the other compounds): comparatively higher levels
